Laboratory results reported in paper PMC8243516, “Inhibition of lysosomal phospholipase A2 predicts drug-induced phospholipidosis” (Journal of Lipid Research, 2021).
Like-named read-outs stand apart in the source and are kept apart here.

What was measured:
[1] = molecular target: T1, LPLA2 (Mus musculus, UniProt Q8VEB4); experiment: LPLA2 thermal stability measurement (SYPRO Orange Tm); assay type: binding
T1 construct: purchased Proteos Inc. (Kalamazoo, MI)
T1 sequence (Q8VEB4 34-412): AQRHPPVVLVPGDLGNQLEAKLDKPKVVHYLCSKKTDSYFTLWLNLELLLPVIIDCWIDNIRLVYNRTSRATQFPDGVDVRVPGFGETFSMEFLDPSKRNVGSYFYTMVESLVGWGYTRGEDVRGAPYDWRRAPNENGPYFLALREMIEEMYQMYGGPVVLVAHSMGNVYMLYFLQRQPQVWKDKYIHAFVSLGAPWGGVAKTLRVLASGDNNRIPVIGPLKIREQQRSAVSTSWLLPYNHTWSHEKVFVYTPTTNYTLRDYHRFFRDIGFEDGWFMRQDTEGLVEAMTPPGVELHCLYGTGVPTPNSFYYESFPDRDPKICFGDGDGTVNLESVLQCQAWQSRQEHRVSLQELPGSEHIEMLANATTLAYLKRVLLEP

[2] = cited from earlier work
[3] = test system: MDCK cells; experiment: Screening phospholipidosis assay (LipidTOX Red / NucBlue Live fluorescence ratio); conditions: for Ratio (15 μM): LipidTOX Red to NucBlue Live fluorescence ratio, 24 h
[4] = molecular target: T2, recombinant mouse LPLA2 (PLA2G15) (Mus musculus, UniProt Q8VEB4); experiment: Transacylase activity of LPLA2 (1-O-acyl-N-acetylsphingosine synthase, cell-free liposome assay); assay type: biochemical
T2 construct: purchased Proteos Inc. (Kalamazoo, MI)
T2 sequence (Q8VEB4 34-412): T1 sequence (Q8VEB4 34-412)

[5] = test system: phospholipidosis; conditions: phospholipidosis reported in vitro; Refs of Table 1; cited from earlier work
[6] = test system: phospholipidosis; conditions: phospholipidosis reported in vivo, species codes; Refs of Table 1; cited from earlier work
[7] = ref Pubchem and chEMBL database
[8] = LPLA2 dependent 1-O-acyl N-acetylsphingosine synthase activity, read-out: LPLA2 IC50
[9] = ref Pubchem and chEMBL databases
[10] = 1-O-acyl N-acetylsphingosine synthase activity, pH 4.5, DOPC/sulfatide liposomes, read-out: LPLA2 IC50

| Structure (SMILES) | (ΔTm)c-(ΔTm)d, difference in melting temperature of LPLA2 alone or in the presence of drug ([1]; N=3 ± SD) | pKa (basic) [2, 7] | Ratio (15 μM) [3] | IC50 [4, 8] | also measured |
| --- | --- | --- | --- | --- | --- |
| Cn1c(=O)[nH]c2ncn(C)c2c1=O [1,7-Dimethylxanthine] | 0 °C | 13.5 | 0.55 | – | – |
| Oc1ncnc2[nH]ncc12 [Allopurinol] | 0.67 ± 0.2 °C | 2.57 | 0.37 | – | – |
| CCN1CCCC1CNC(=O)c1cc(S(=O)(=O)CC)c(N)cc1OC (stereo not drawn) [Amisulpride] | 0 °C | 7.05 | 0.08 | 1920 µM | – |
| O=C(CCCN1CCN(c2ccccn2)CC1)c1ccc(F)cc1 [Azaperone] | 0.93 ± 0.1 °C | 7.16 | 0.43 | – | – |
| CCc1oc2ccccc2c1C(=O)c1cc(Br)c(O)c(Br)c1 [Benzbromarone, 2,6-dibromo-4-(2-ethyl-1-benzofuran-3-carbonyl)phenol] | – | – | 0.5 | – | (ΔTm)c-(ΔTm)d, difference in melting temperature of LPLA2 alone or in the presence of drug [1]: -1.40 ± 0.3 °C; In Vitro PLD [5]: Yes; pKa (basic) [2, 9]: -3.8; IC50 ([4]; LPLA2 IC50, 1-O-acyl N-acetylsphingosine synthase activity, pH 4.5, DOPC/sulfatide liposomes): 3.8 µM |
| CN(Cc1ccc(C(C)(C)C)cc1)Cc1cccc2ccccc12 [Butenafine] | -2.22 ± 0.3 °C | 9.23 | 0.31 | 41.2 µM | – |
| NC(=O)N1c2ccccc2C=Cc2ccccc21 [Carbamazepine] | -1.26 ± 0.1 °C | -3.8 | 0.18 | 106 µM | – |
| Clc1cccc(Cl)c1N=C1NCCN1 [Clonidine] | -0.62 ± 0.0 °C | 8.16 | 0.25 | – | – |
| CCOC(=O)COc1ccc2c(C)c(CCN(CC)CC)c(=O)oc2c1Cl [Cloricromen] | 0.24 ± 0.1 °C | 9.1 | 0.1 | 285 µM | – |
| COc1cc(C(=O)OCCCN2CCCN(CCCOC(=O)c3cc(OC)c(OC)c(OC)c3)CC2)cc(OC)c1OC [Dilazep] | 0.11 ± 0.1 °C | 9.54 | 1.17 | 59.8 µM | – |
| COc1ccc(C(=O)Nc2ccccc2CCC2CCCCN2C)cc1 (stereo not drawn) [Encainide, 4-methoxy-N-{2-[2-(1-methylpiperidin-2-yl)ethyl]phenyl} benzamide] | -0.76 ± 0.1 °C | – | 0.23 | – | In Vitro PLD [5]: Yes; pKa (basic) [2, 9]: 9.41; IC50 [4, 10]: 76.1 µM |
| O=C1NCC2(CCN(CCc3ccccc3)CC2)O1 [Fenspiride] | -1.67 ± 1.0 °C | 9.37 | 0.07 | – | – |
| O=C(O)[C@@H]1C[C@@H](C2CCCCC2)CN1C(=O)CP(=O)(O)CCCCc1ccccc1 [Fosinoprilat] | -1.45 ± 0.9 °C | -4.7 | 0.19 | 5.76 µM | Signal in the LipidTOX assay (in words) [3]: positive signal; IC50 [4, 10]: 5.8 µM |
| C[C@]12CC[C@@H]3c4ccc(O)cc4C[C@@H](CCCCCCCCC[S+]([O-])CCCC(F)(F)C(F)(F)F)[C@H]3[C@@H]1CC[C@@H]2O (stereo partly drawn) [Fulvestrant] | -1.05 ± 4.0 °C | -0.88 | 0.37 | 61.8 µM | – |
| CC(=O)O[C@H]1C[C@@]2(C)[C@@H](C[C@@H](O)[C@H]3[C@@]4(C)CC[C@@H](O)[C@@H](C)[C@@H]4CC[C@@]32C)/C1=C(\CCC=C(C)C)C(=O)O [Fuscidic acid] | 0.94 ± 0.1 °C | -0.2 | 0.23 | 231 µM | – |
| NNc1nncc2ccccc12 [Hydralazine] | 1.20 ± 0.1 °C | 6.4 | 0.6 | 100 µM | – |
| CC(C)Cn1cnc2c(N)nc3ccccc3c21 [Imiquimod] | 0.66 ± 0.2 °C | 5.01 | 0.07 | 160 µM | – |
| CC(COc1ccccc1)NC(C)C(O)c1ccc(O)cc1 (stereo not drawn) [Isoxsuprine] | 1.1 ± 0.0 °C | 9 | 1.22 | – | – |
| Cc1ccc(Cl)c(Nc2ccccc2C(=O)O)c1Cl [Meclofenamic acid] | -0.23 ± 0.1 °C | -3.6 | 0.52 | – | – |
| COc1ccc2[nH]cc(CCNC(C)=O)c2c1 [Melatonin] | 0.15 ± 0.1 °C | -1.6 | 0.26 | 38 µM | – |
| COCC(=O)O[C@]1(CCN(C)CCCc2nc3ccccc3[nH]2)CCc2cc(F)ccc2[C@@H]1C(C)C [Mibefradil] | 1.30 ± 0.1 °C | 9.82 | 1.21 | 12.9 µM | – |
| Fc1ccc([C@@H]2CCNC[C@H]2COc2ccc3c(c2)OCO3)cc1 [Paroxetine, (3S,4R)-3-[(2H-1,3-benzodioxol-5-yloxy)methyl]-4-(4-fluorophenyl)piperidine] | – | – | – | – | In Vivo PLD [6]: R; IC50 [4, 10]: 5.12 µM |
| NC(=O)C1(N2CCCCC2)CCN(CCCC(=O)c2ccc(F)cc2)CC1 [Pipamperone] | 0.83 ± 0.1 °C | 8.96 | 0.37 | 250 µM | – |
| Cc1nc2sccn2c(=O)c1CCN1CCC(=C(c2ccc(F)cc2)c2ccc(F)cc2)CC1 [Ritanserin] | -1.90 ± 02 °C | 8 | 0.19 | 13.4 µM | – |
| COc1ccc(C2CNC(=O)C2)cc1OC1CCCC1 (stereo not drawn) [Rolipram] | -1.85 ± 0.9 °C | -1.9 | 0.19 | 300 µM | – |
| CCCCCCCCNC(C)C(O)c1ccc(SC(C)C)cc1 (stereo not drawn) [Suloctidil] | 2.00 ± 0.2 °C | 9.76 | 0.66 | 6.82 µM | – |
| CN1CCN(CCCN2c3ccccc3Sc3ccc(C(F)(F)F)cc32)CC1 [Trifluoperazine] | – | 8.39 | 0.81 | 6.87 µM | (ΔTm)c-(ΔTm)d, difference in melting temperature of LPLA2 alone or in the presence of drug [1]: 0.49 ± 0.3 °C |
| Cc1cc(C(C)(C)C)cc(C)c1CC1=NCCN1 [Xylometazoline] | 0.66 ± 0.0 °C | 10.29 | 0.16 | 44.3 µM | – |
| CC[C@H](NC(=O)c1c(C)c(-c2ccccc2)nc2ccccc12)c1ccccc1 [sb222200] | -1.20 ± 0.1 °C | 9.57 | 0.34 | 14.9 µM | – |
